Test results: patent US20070249620A1, “Urea Derivative” (priority 2004, published 2007)

Experiments:
mouse DGAT1 = molecular target: T1, mouse DGAT1 (Mus musculus, UniProt Q9Z2A7); experiment: DGAT1 inhibitory effect test (microsome fraction, [14C]-oleoyl-CoA, triglyceride radioactivity by TLC); type: biochemical; conditions: 0.5 h; concentration of the test compound 0.1 μg/ml; mouse DGAT1 microsomes, 23° C., 30 minutes; read-out: Inhibitory ratio
T1 construct: made in house; host or cells: insect cells (High Five, Sf9, Sf21, etc.), baculovirus expression system (Invitrogen)
T1 sequence (Q9Z2A7 1-498): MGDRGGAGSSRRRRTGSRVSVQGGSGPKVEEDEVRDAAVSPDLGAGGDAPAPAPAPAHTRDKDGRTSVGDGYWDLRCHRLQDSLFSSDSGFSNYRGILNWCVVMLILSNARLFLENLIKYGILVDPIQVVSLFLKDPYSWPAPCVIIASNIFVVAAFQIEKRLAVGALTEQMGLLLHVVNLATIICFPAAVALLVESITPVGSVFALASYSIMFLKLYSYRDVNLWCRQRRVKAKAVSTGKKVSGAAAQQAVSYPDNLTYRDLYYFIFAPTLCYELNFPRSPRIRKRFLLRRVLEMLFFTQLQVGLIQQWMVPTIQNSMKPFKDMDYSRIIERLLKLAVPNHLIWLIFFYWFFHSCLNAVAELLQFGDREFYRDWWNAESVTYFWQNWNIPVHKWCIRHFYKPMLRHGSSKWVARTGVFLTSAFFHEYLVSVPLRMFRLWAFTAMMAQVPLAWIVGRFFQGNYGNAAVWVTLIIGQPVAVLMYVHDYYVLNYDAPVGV
Procedure, shortened: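 Inhibition was scored from radiolabelled triglyceride separated by TLC, relative to vehicle and net of a 0-min background. The reaction ran for 30 min at room temperature (23 °C) in Tris-HCl pH 8.0 with MgCl2, BSA and Triton X-100. Substrates were 30 μM [14C]-oleoyl-CoA and 0.5 mM dioleoylglycerol, with mouse DGAT1 microsomes from baculovirus-infected insect cells as enzyme.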

| melting point [°C] | inhibition at 0.1 µg/mL (mouse DGAT1) [%] | Structure (SMILES) |
| --- | --- | --- |
| 197 to 199 | ≥ 50 | CCOc1ccc(F)cc1NC(=O)Nc1ccc(N2CCN(C(=O)Nc3c(C)cccc3Cl)CC2)cc1 [Example 91, 4-{4-[3-(2-ethoxy-5-fluoro-phenyl)-ureido]-phenyl}-piperazine-1-carboxylic acid (2-chloro-6-methyl-phenyl)-amide] |
| 215 to 217 | ≥ 50 | COc1ccc(C)cc1NC(=O)Nc1ccc(N2CCN(C(=O)Nc3c(C)cc(C)cc3C)CC2)cc1 [Example 88, 4-{4-[3-(2-methoxy-5-methyl-phenyl)-ureido]-phenyl}-piperazine-1-carboxylic acid (2,4,6-trimethyl-phenyl)-amide] |
| 136 to 137 | ≥ 50 | CCOc1ccccc1NC(=O)Nc1ccc(N2CCN(C(=O)Nc3ccc(C)cc3Cl)CC2)nc1 [Example 146, 4-{5-[3-(2-ethoxy-phenyl)-ureido]-pyridin-2-yl}-piperazine-1-carboxylic acid (2-chloro-4-methyl-phenyl)-amide] |
| 195 | ≥ 50 | COc1ccc(F)cc1NC(=O)Nc1ccc(N2CCN(C(=O)Nc3ccc(OCC(O)CO)cc3C(F)(F)F)CC2)nc1 (stereo not shown) [Example 279, 4-{5-[3-(5-fluoro-2-methoxy-phenyl)-ureido]-pyridin-2-yl}-piperazine-1-carboxylic acid [4-(2,3-dihydroxy-propoxy)-2-trifluoromethyl-phenyl]-amide] |
| 213 to 215 | ≥ 50 | Cc1cccnc1NC(=O)N1CCN(c2ccc(NC(=O)Nc3ccccc3F)cn2)CC1 [Example 302, 4-{5-[3-(2-fluoro-phenyl)-ureido]-pyridin-2-yl}-piperazine-1-carboxylic acid (3-methyl-pyridin-2-yl)-amide] |
| 195 to 198 | ≥ 50 | COc1ccc(C)cc1NC(=O)Nc1ccc(C2=CCN(C(=O)Nc3ncccc3C)CC2)cc1 [Example 324, 4-{4-[3-(2-methoxy-5-methyl-phenyl)-ureido]-phenyl}-3,6-dihydro-2H-pyridine-1-carboxylic acid (3-methyl-pyridin-2-yl)-amide] |
| 139 to 141 | ≥ 50 | CCOc1ccccc1NC(=O)Nc1ccc(N2CCN(C(=O)Nc3c(F)cccc3C(F)(F)F)CC2)cc1 [Example 117, 4-{4-[3-(2-ethoxy-phenyl)-ureido]-phenyl}-piperazine-1-carboxylic acid (2-fluoro-6-trifluoromethyl-phenyl)-amide] |
| 157 to 159 | ≥ 50 | CCOc1ccc(C)cc1NC(=O)Nc1ccc(N2CCN(C(=O)Nc3c(C)cccc3Cl)CC2)cc1 [Example 85, 4-{4-[3-(2-ethoxy-5-methyl-phenyl)-ureido]-phenyl}-piperazine-1-carboxylic acid (2-chloro-6-methyl-phenyl)-amide] |
| 189 to 190 | ≥ 50 | COc1ccc(Cl)cc1NC(=O)Nc1ccc(N2CCN(C(=O)Nc3c(Cl)cccc3Cl)CC2)cc1 [Example 132, 4-{4-[3-(5-chloro-2-methoxy-phenyl)-ureido]-phenyl}-piperazine-1-carboxylic acid (2,6-dichloro-phenyl)-amide] |
| 118 to 120 | ≥ 50 | COc1ccc(C)cc1NC(=O)Nc1ccc(N2CCN(C(=O)C(O)c3ccccc3Cl)CC2)nc1 (stereo not shown) [Example 380, 1-(6-{4-[2-(2-chloro-phenyl)-2-hydroxy-acetyl]-piperazin-1-yl}-pyridin-3-yl)-3-(2-methoxy-5-methyl-phenyl)-urea] |
| 175 to 177 | ≥ 50 | COc1ccc(C)cc1NC(=O)Nc1ccc(N2CCN(C(=O)Nc3ccc(OCCO)cc3C(F)(F)F)CC2)cc1 [Example 209, 4-{4-[3-(2-methoxy-5-methyl-phenyl)-ureido]-phenyl}-piperazine-1-carboxylic acid [4-(2-hydroxy-ethoxy)-2-trifluoromethyl-phenyl]-amide] |
